This is an account of results in PMC8904451, “Novel chalcone-derived pyrazoles as potential therapeutic agents for the treatment of non-small cell lung cancer” (Scientific Reports, 2022).

SMILES strings stand for the structures.

What all share (type): cell-based, human
In one assay the test system is H226 cells. The experiment in a line: MTT cell viability assay, H226. On the procedure: All the synthesized chalcone-derived pyrazoles were evaluated for their antiproliferative activity against three human non-small cell lung cancer cell lines: A-549, H226, and H460, and a nonmalignant human embryonic kidney cell line HEK293. Cisplatin and 5-fluorouracil (5-FU) were used as a reference. Cells were exposed to a range of PCH concentrations (0.5–100 µM) for 72 h and analyzed by 3-(4,5-dimethylthiazol-2-yl)-2,5-diphenyl-2H-tetrazolium bromide (MTT) assay. The results of the studies are expressed as the IC50 concentration that inhibits 50% growth of cells. […] Following treatment with PCH-1, the viability of all the tested cancer cell lines decreased in a concentration-dependent manner.
The cell viability assay was performed for A-549, H226, H460, and HEK293 cells after treatment with the test compounds by using the 3-(4,5-dimethylthiazol-2-yl)-2,5-diphenyltetrazolium bromide (MTT, Sigma-Aldrich) assay. Briefly, cells were seeded onto 96-well culture plates for attachment. After 24 h, triplicate wells were treated with DMSO (1%) and the agents. After 72 h of incubation at 37 °C in 5% CO2, the MTT solution (0.4 mg/ml) was added to each well. After 2–4 h of incubation, the medium was removed, and the formazan crystals were dissolved in 100 μl of DMSO. The absorption was measured at 450 nm with an ASYS UVM340 microplate reader (Biochrom Ltd.). The 50% inhibitory concentration (IC50) was defined as the concentration that reduced the absorbance of the DMSO-treated wells by 50% of the vehicle. The IC50 values were generated from GraphPad Prism 9 software by plotting the survival curve as a function of dose from 3 independent experiments.
For orientation: Formazan colour is commonly taken as a measure of viable cells.

In assay [1] the test system is A-549, H226, and H460 cells. The experiment in a line: Colony formation assay. To be noted: 1, 5, 10 µM for 24 h, then 9 days culture. The method, then: Cells were seeded onto 6-well plates (500 cells/well) and allowed to attach for 24 h in a fresh RPMI medium. Next, the cells were pretreated with DMSO (1%) solution of the examined compound (at the concentrations of 1, 5, and 10 µM) for 24 h. The medium containing compound was then changed, and the cells were cultured for additional 9 days. After incubation, the cells were washed twice with phosphate-buffered saline (PBS), fixed with 100% methanol for 30 min, and stained with 0.5% crystal violet for 15 min. The colonies were photographed and counted by ImageJ software.

Assay [2] deals with A-549 cells. The assay can be described thus: Western blot of apoptotic and EMT-related proteins. The method, then: To investigate the potential molecular mechanisms responsible for PCH-1-induced apoptosis in A-549 cells, we measured the expression of apoptosis-related proteins by western blot analysis. […] Next, we determined the role of the antiapoptotic protein Bcl-2 as well as the proapoptotic proteins Bax and Bid in PCH-1-induced cell death in A-549 cells. […] Additionally, we observed Bid cleavage (48 h: *p < 0.01), which was noted as a reduction in full-length Bid protein.
Epithelial-mesenchymal transition (EMT) plays a crucial role in tumorigenesis by promoting cell motility, migration, and metastasis. Thus, we examined the expression of proteins involved in the EMT process by western blot assays. […] The activity of N-cadherin in A-549 cells was reduced by 45% at 24 h (p = 0.0002) and by 50% at 48 h (p = 0.0002), while vimentin activity was reduced by 43% at 24 h (p = 0.005) and by 46% at 48 h (p = 0.004). Additional PCH-1 inhibited Transforming Growth Factor β1 (TGF-β1) induced mesenchymal-like phenotype in A-549 cells, indicating […] of N-cadherin by 66% at 48 h (p = 0.0003), and another EMT effector β-catenin, which was suppressed by 31% at 24 h (p = 0.0275) and by 66% at 48 h (p = 0.0019).
Cells (1.5 × 10^6) were cultured in tissue culture plates for overnight attachment. The cells were then incubated with IC90 of PCH-1 or 1% DMSO for 6, 24, and 48 h, or were co-treatment with 2.5 ng/ml TGF-β1 (Sigma-Aldrich), and IC90 of PCH-1 or 1% DMSO for 24, and 48 h. Subsequently, the cells were collected and lysed in Laemmli buffer with a protease inhibitor cocktail (Roche) and phosphatase inhibitors [NaF (5 mM), β-glycerophosphate (5 mM), and Na3VO4 (1 mM)]. The cells were then sonicated in triplicate (10 s, 30% amplitude) and centrifuged at 16,000×g at 12 °C for 15 min. Protein concentrations were determined using the DC Protein Assay Kit (Bio-Rad). For determining total protein content, the cellular extract was separated by 10% or 12% sodium dodecyl sulfate–polyacrylamide gel electrophoresis (SDS-PAGE) and transferred onto a microporous polyvinylidene difluoride (PVDF) membrane (Bio-Rad). After blocking with 5% (w/v) BSA (Sigma-Aldrich) in 1 × TBST (pH 7.4 and 0.1% Tween-20) for 1 h, the membranes were incubated overnight with primary antibodies at 4 °C, followed by horseradish peroxidase-conjugated secondary antibodies for 1 h. All the used antibodies are listed in Table S1 in the supplementary information. The immunoreactive signals were detected using an enhanced chemiluminescence (ECL) detection reagent kit (Thermo Fisher) and a ChemiDoc XRS + Imaging System (Bio-Rad). The band intensity was measured using Image Lab 5.2 software (Bio-Rad).
On the technique in general: In western blotting, separated proteins are transferred to a membrane and probed.

The subject of assay [3] is A-549 cells. The experiment in a line: Wound healing migration assay. On the procedure:
To further confirm the antimigratory potential of PCH-1, the wound healing assay was performed on A-549 cells. […] This effect was retained during the entire exposure time, with the highest difference during 18–24 h compared to that in the control group. Finally, the anti-migratory properties of PCH-1 were studied by co-treatment A-549 cells with TGF-β1.
To analyze cell motility, A-549 cells were seeded onto the Ibidi-silicone insert on a cover glass-bottom 24-well plate for live cell imaging and incubated for 24 h. Subsequently, the inserts were dislodged, the cellular debris was removed by washing with RPMI, and the cells were incubated with different concentrations of PCH-1, and/or 2.5 ng/ml TGF-β1 (Sigma-Aldrich) in an imaging chamber (cellVivo incubation system, Olympus) at 37 °C with 5% CO2. Images were captured every 10 min for 20 or 42 h under × 10 magnification using a fluorescence microscope (IX83 Inverted Microscope, Olympus) connected to an XC50 digital color camera (Olympus). The percentage of wound closure was quantified with ImageJ software.

The mark [4] stands for this setting: A-549 co-treated with 2.5 ng/ml TGF-β1, IC90, 48 h.

For the molecule `COc1ccc(C2CC(c3cc4c(cc3OC)OCO4)=NN2C(C)=O)cc1` (stereo not drawn) [PCH-1, 1-[3-(6-methoxy-2H-1,3-benzodioxol-5-yl)-5-(4-methoxyphenyl)-4,5-dihydro-1H-pyrazol-1-yl]ethan-1-one], the “superior activity to the reference compound Cisplatin, H226” value in the assay with H226 cells (72 h IC50 ratio) is listed as about 3.7 fold. Further, the half-maximal inhibitory concentration (IC50) (usually the concentration at which inhibition is half-maximal) with H226 cells (Homo sapiens, NCI-H226, 72 h, MTT, read-out: IC50 ± SD, growth inhibition, H226) came out at 4.69 ± 0.43 µM. Moreover, in assay [1], the number of colonies entry is reported as “reduced the number of colonies in all the tested cell lines in a dose-dependent manner”. In the assay with A-549 cells [2] (A-549, IC90), the Bcl-2 protein level entry was “not changed”. The Bax protein level result in the assay with A-549 cells [2] (A-549, IC90, 6, 24, 48 h) was “significant increase”. For the same molecule, in the assay with A-549 cells [2] (A-549, IC90, 24 and 48 h), the “expression of hTERT” value is “significantly decreased”. In addition, in the assay on A-549 cells [2] (A-549, IC90, 24 h), the “reduction of N-cadherin” value is 45% and the reduction of vimentin turned out to be 43%. Besides, in the assay on A-549 cells [2] (A-549, IC90, 48 h), the “reduction of N-cadherin” value turned out to be 50% and the reduction of vimentin is 46%. Besides, in the assay on A-549 cells [2] (A-549 co-treated with 2.5 ng/ml TGF-β1, IC90, 24 h), the “suppression of β-catenin, TGF-β1 induced” value amounted to 31%. Also, in the assay with A-549 cells [2] (setting [4]), the “reduction of N-cadherin, TGF-β1 induced” value is 66% and the “suppression of β-catenin, TGF-β1 induced” value amounted to 66%. Moreover, the “TGF-β1-induced cell motility (wound closure)” value with A-549 cells [3] (A-549 + 2.5 ng/ml TGF-β1, 5 µM and 10 µM, 20 h) is listed as “the wound remained opened”. Moreover, the “cell migration (wound closure)” value in the assay with A-549 cells [3] (A-549, 10 and 15 µM) is “significantly reduced the migration of the cells”.
